Reference: patent US12178791B2, “Haloallylamine sulfone derivative inhibitors of lysyl oxidases and uses thereof” (Syntara Limited, priority 2018, dated 2024)
Where a name gives a salt, the structure may show the parent alone.

Assays:
Assay type in all cases: biochemical
Bovine LOX = Bovine LOX (Bos taurus (Bovine), UniProt P33072); assay: LOX inhibition, Amplex Red oxidation assay; conditions: 30 min preincubation at 37 °C, putrescine substrate
From the text: Lysyl oxidase (LOX) is an extracellular copper dependent enzyme which oxidizes peptidyl lysine and hydroxylysine residues in collagen and lysine residues in elastin to produce peptidyl alpha-aminoadipic-delta-semialdehydes. […] There are five LOX family members; these are LOX, LOXL1, LOXL2, LOXL3 and LOXL4. LOX and LOXL family members can be acquired as recombinant active proteins from commercial sources, or extracted from animal tissues like bovine aorta, tendons, pig skin; or prepared from cell cultures. The inhibitory effects of the compounds of the present invention were tested against the given LOX-LOXL preparation using a method based on the detection of hydrogen peroxide with an Amplex Red oxidation assay (Zhou et al. A stable nonfluorescent derivative of resorufin for the fluorometric determination of trace hydrogen peroxide: applications in detecting the activity of phagocyte NADPH oxidase and other oxidases. Anal. Biochem. 1997; 253, 162-168). The assay was developed using either 384 or 96 well format. Briefly, in a standard black, clear bottom 384 well plate assay 25 μL of a dilution of any of the isoenzymes and orthologues in 1.2 M urea, 50 mM sodium borate buffer (pH 8.2) were added into each well in the presence of 1 μM mofegiline and 0.5 mM pargyline (to inhibit SSAO and MAO-B and MAO-A, respectively; not necessary if the enzyme is from a recombinant or purified form). […] Twenty five μL of a reaction mixture containing twice the KM concentration of putrescine (Sigma Aldrich, e.g. 20 mM for LOX, or 10 mM for LOXL2 and LOXL3), 120 μM Amplex Red (Sigma Aldrich) and 1.5 U/mL horseradish peroxidase (Sigma Aldrich) prepared in 1.2 M urea, 50 mM sodium borate buffer (pH 8.2) were then added to the corresponding wells. The above volumes were doubled in the case of 96 wells plate. The fluorescence (RFU) was read every 2.5 min for 30 min at […] 37° C., excitation 565 nm and emission 590 (Optima; BMG labtech). The slope of the kinetics for each well was calculated using MARS data analysis software (BMG labtech) and this value was used to deduce the IC50 value (Dotmatics).

LOXL2 = LOXL2 (Homo sapiens (Human), UniProt Q9Y4K0); assay: LOXL2 inhibition, Amplex Red oxidation assay; conditions: 30 min preincubation at 37 °C, putrescine substrate
From the text: Lysyl oxidase (LOX) is an extracellular copper dependent enzyme which oxidizes peptidyl lysine and hydroxylysine residues in collagen and lysine residues in elastin to produce peptidyl alpha-aminoadipic-delta-semialdehydes. […] There are five LOX family members; these are LOX, LOXL1, LOXL2, LOXL3 and LOXL4. LOX and LOXL family members can be acquired as recombinant active proteins from commercial sources, or extracted from animal tissues like bovine aorta, tendons, pig skin; or prepared from cell cultures. The inhibitory effects of the compounds of the present invention were tested against the given LOX-LOXL preparation using a method based on the detection of hydrogen peroxide with an Amplex Red oxidation assay (Zhou et al. A stable nonfluorescent derivative of resorufin for the fluorometric determination of trace hydrogen peroxide: applications in detecting the activity of phagocyte NADPH oxidase and other oxidases. Anal. Biochem. 1997; 253, 162-168). The assay was developed using either 384 or 96 well format. Briefly, in a standard black, clear bottom 384 well plate assay 25 μL of a dilution of any of the isoenzymes and orthologues in 1.2 M urea, 50 mM sodium borate buffer (pH 8.2) were added into each well in the presence of 1 μM mofegiline and 0.5 mM pargyline (to inhibit SSAO and MAO-B and MAO-A, respectively; not necessary if the enzyme is from a recombinant or purified form). Test compounds were dissolved in DMSO and tested in a Concentration Response Curve (CRC) with 11 data points, typically in the micromolar or nanomolar range after incubation with the enzyme for 30 min at 37° C. Twenty five μL of a reaction mixture containing twice the KM concentration of putrescine (Sigma Aldrich, e.g. 20 mM for LOX, or 10 mM for LOXL2 and LOXL3), 120 μM Amplex Red (Sigma Aldrich) and 1.5 U/mL horseradish peroxidase (Sigma Aldrich) prepared in 1.2 M urea, 50 mM sodium borate buffer (pH 8.2) were then added to the corresponding wells. The above volumes were doubled in the case of 96 wells plate. The fluorescence (RFU) was read every 2.5 min for 30 min at […] 37° C., excitation 565 nm and emission 590 (Optima; BMG labtech). The slope of the kinetics for each well was calculated using MARS data analysis software (BMG labtech) and this value was used to deduce the IC50 value (Dotmatics).

[1] = target: Human recombinant SSAO/VAP-1 (Homo sapiens (Human), UniProt Q16853); assay: Inhibition of human recombinant SSAO/VAP-1; conditions: 30 min preincubation at 37 °C, benzylamine 600 μM; read-out: SSAO/VAP-1 Activity IC50
Protocol: Human recombinant SSAO/VAP-1 amine oxidase activity was determined using the coupled colorimetric method as described for monoamine oxidase, copper-containing amine oxidases and related enzymes (Holt A. and Palcic M., A peroxidase-coupled continuous absorbance plate-reader assay for flavin monoamine oxidases, copper-containing amine oxidases and related enzymes. Nat Protoc 2006; 1: 2498-2505). Briefly, a cloned cDNA template corresponding to residues 34-763 of human SSAO/VAP-1, and incorporating a mouse Ig kappa (κ) signal sequence, N-terminal flag epitope tag and tobacco etch virus (TEV) cleavage site, was assembled in a mammalian expression vector (pLO-CMV) by Geneart AG. This vector containing human SSAO/VAP-1 residues was transfected into CHO-Kl glycosylation mutant cell line, Lec 8. A clone stably expressing human SSAO/VAP-1 was isolated and cultured in large scale. Active human SSAO/VAP-1 was purified and recovered using immunoaffinity chromatography. This was used as the source for SSAO/VAP-1 activity. A high-throughput colorimetric assay was developed using either 96 or 384 well format. Briefly, in a standard 96 well plate assay 50 μL of purified human SSAO/VAP-1 (0.25 μg/mL) in 0.1 M sodium phosphate buffer (pH 7.4) was added into each well. Test compounds were dissolved in DMSO and tested in a Concentration Response Curve (CRC) with 4-11 data points, typically in the micromolar or nanomolar range after incubation with human SSAO/VAP-1 for 30 min at 37° C. After 30 min incubation, 50 μL of the reaction mixture containing 600 μM benzylamine (Sigma Aldrich), 120 μM Amplex Red (Sigma Aldrich) and 1.5 U/mL horseradish peroxidase (Sigma Aldrich) prepared in 0.1 M sodium phosphate buffer (pH 7.4) were added to the corresponding well. The fluorescence unit (RFU) was read every 2.5 min for 30 min at 37° C. excitation 565 nm and emission 590 (Optima; BMG labtech). The slope of the kinetics for each well was calculated using MARS data analysis software (BMG labtech) and this value was used to deduce the IC50 value (Dotmatics).

Chain of LOXL2 (Q9Y4K0 26-774): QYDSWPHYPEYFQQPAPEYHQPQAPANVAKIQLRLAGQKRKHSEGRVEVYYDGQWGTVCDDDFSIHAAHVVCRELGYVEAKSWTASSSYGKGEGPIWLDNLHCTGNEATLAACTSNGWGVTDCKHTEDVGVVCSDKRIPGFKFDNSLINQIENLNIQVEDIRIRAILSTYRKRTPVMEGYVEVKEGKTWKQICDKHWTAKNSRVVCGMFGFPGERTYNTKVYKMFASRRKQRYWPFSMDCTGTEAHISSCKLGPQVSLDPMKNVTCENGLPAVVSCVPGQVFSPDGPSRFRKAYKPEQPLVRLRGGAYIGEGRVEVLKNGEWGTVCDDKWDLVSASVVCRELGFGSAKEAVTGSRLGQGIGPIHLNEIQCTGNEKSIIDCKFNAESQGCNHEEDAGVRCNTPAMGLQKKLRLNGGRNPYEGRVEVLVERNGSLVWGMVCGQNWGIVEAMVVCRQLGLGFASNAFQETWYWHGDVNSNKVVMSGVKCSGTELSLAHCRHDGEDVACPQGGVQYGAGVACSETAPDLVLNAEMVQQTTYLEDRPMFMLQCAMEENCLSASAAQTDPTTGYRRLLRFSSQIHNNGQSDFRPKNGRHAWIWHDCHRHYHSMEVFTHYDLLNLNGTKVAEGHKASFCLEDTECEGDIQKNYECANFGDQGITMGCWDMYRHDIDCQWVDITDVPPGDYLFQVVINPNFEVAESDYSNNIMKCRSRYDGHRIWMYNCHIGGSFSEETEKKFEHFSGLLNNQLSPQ
Chain of Bovine LOX (P33072 170-418): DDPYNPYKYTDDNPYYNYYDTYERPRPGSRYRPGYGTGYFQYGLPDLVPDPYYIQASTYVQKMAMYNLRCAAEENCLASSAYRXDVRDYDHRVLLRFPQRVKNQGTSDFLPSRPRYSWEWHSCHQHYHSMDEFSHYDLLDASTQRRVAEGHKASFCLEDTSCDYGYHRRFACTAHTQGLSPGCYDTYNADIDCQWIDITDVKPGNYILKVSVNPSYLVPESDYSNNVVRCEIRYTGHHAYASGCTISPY
Chain of Human recombinant SSAO/VAP-1 (Q16853 34-763): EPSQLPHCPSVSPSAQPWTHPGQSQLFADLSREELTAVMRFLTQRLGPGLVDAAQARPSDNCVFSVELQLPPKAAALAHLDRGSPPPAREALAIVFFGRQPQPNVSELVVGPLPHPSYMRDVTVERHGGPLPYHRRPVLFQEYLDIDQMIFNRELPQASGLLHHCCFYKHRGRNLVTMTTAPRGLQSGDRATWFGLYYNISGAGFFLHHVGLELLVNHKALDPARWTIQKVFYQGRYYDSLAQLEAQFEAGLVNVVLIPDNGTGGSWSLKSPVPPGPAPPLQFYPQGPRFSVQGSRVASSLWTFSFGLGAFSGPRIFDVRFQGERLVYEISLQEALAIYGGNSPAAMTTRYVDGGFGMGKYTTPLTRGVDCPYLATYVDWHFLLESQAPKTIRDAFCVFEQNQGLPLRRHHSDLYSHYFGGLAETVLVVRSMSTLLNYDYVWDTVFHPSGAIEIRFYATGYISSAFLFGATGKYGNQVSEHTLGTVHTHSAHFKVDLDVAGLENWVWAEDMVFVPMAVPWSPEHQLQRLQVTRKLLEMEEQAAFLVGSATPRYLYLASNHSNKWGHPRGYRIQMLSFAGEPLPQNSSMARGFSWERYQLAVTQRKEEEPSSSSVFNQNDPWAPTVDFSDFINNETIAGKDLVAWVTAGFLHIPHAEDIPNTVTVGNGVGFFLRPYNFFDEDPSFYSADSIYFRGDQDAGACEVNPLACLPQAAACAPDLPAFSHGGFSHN

Row | SMILES | IC50 (Bovine LOX) [µM] | IC50 (LOXL2) [µM] | IC50 [1] [µM]
1 | NC/C=C(\F)CS(=O)(=O)c1ccc(Cl)cc1Cl [Compound 25, (Z)-4-(2,4-dichlorophenylsulfonyl)-3-fluorobut-2-en-1-amine hydrochloride] | < 10 | < 1 | 
2 | NC/C=C(\F)CS(=O)(=O)c1ccc(F)cc1 [Compound 39, (Z)-3-fluoro-4-(4-fluorophenylsulfonyl)but-2-en-1-amine hydrochloride] | < 10 | < 1 | 
3 | Cc1cc(S(=O)(=O)C/C(F)=C/CN)ccn1 [Compound 44, (Z)-3-fluoro-4-(2-methylpyridin-4-ylsulfonyl)but-2-en-1-amine dihydrochloride] | < 10 | < 1 | 
4 | Cc1cccc(S(=O)(=O)C/C(F)=C/CN)c1 [Compound 41, (Z)-3-fluoro-4-(m-tolylsulfonyl)but-2-en-1-amine hydrochloride] | < 10 | < 1 | 
5 | Cc1[nH]c2c(S(=O)(=O)C/C(F)=C/CN)cccc2c1C [Compound 52, (Z)-4-((2,3-dimethyl-1H-indol-7-yl)sulfonyl)-3-fluorobut-2-en-1-amine hydrochloride] | < 10 | < 1 | 
6 | NC/C=C(\F)CS(=O)(=O)c1ccccc1-c1ccccc1 [Compound 20, (Z)-4-(biphenyl-2-ylsulfonyl)-3-fluorobut-2-en-1-amine hydrochloride] | < 10 | < 1 | 
7 | CC(C)c1ccc(S(=O)(=O)C/C(F)=C/CN)cn1 [Compound 49, (Z)-3-fluoro-4-(6-isopropylpyridin-3-ylsulfonyl)but-2-en-1-amine dihydrochloride] | < 10 | < 1 | 
8 | NC/C=C(\F)CS(=O)(=O)c1ccc2ccccc2c1 [Compound 24, (Z)-3-fluoro-4-(naphthalen-2-ylsulfonyl)but-2-en-1-amine hydrochloride] | < 10 | < 1 | 
9 | CC(C)c1ccc(S(=O)(=O)C/C(F)=C/CN)nc1 [Compound 34, (Z)-3-fluoro-4-(5-isopropylpyridin-2-ylsulfonyl)but-2-en-1-amine dihydrochloride] | < 10 | < 1 | 
10 | Cc1cccc(S(=O)(=O)C/C(F)=C/CN)n1 [Compound 36, (Z)-3-fluoro-4-(6-methylpyridin-2-ylsulfonyl)but-2-en-1-amine dihydrochloride] | < 10 | < 1 | 
11 | COc1ccccc1S(=O)(=O)C/C(F)=C/CN [Compound 22, (Z)-3-fluoro-4-(2-methoxyphenylsulfonyl)but-2-en-1-amine hydrochloride] | < 10 | < 1 | 
12 | Cc1ccc(S(=O)(=O)C/C(F)=C/CN)nc1 [Compound 35, (Z)-3-fluoro-4-(5-methylpyridin-2-ylsulfonyl)but-2-en-1-amine dihydrochloride] | < 10 | < 1 | 
13 | NC/C=C(\F)CS(=O)(=O)c1ccccc1F [Compound 37, (Z)-3-fluoro-4-(2-fluorophenylsulfonyl)but-2-en-1-amine hydrochloride] | < 10 | < 1 | 
14 | NC/C=C(\F)CS(=O)(=O)c1cc(Cl)cc(Cl)c1 [Compound 28, (Z)-4-(3,5-dichlorophenylsulfonyl)-3-fluorobut-2-en-1-amine hydrochloride] | < 10 | < 1 | > 30
15 | Cc1ccccc1S(=O)(=O)C/C(F)=C/CN [Compound 40, (Z)-3-fluoro-4-(o-tolylsulfonyl)but-2-en-1-amine hydrochloride] | < 10 | < 1 | 
16 | NC/C=C(\F)CS(=O)(=O)c1cccc(Cl)c1 [Compound 26, (Z)-4-(3-chlorophenylsulfonyl)-3-fluorobut-2-en-1-amine hydrochloride] | < 10 | < 1 | 
17 | Cc1ccc(S(=O)(=O)C/C(F)=C/CN)cc1 [Compound 42, (Z)-3-fluoro-4-(p-tolylsulfonyl)but-2-en-1-amine hydrochloride] | < 10 | < 1 | 
18 | Cc1ncccc1S(=O)(=O)C/C(F)=C/CN [Compound 47, (Z)-3-fluoro-4-(2-methylpyridin-3-ylsulfonyl)but-2-en-1-amine dihydrochloride] | < 10 | < 1 | 
19 | Cc1cccnc1S(=O)(=O)C/C(F)=C/CN [Compound 43, (Z)-3-fluoro-4-(3-methylpyridin-2-ylsulfonyl)but-2-en-1-amine dihydrochloride] | < 10 | < 1 | 
20 | NC/C=C(\F)CS(=O)(=O)c1ccc(Cl)cc1 [Compound 27, (Z)-4-(4-chlorophenylsulfonyl)-3-fluorobut-2-en-1-amine hydrochloride] | < 10 | < 1 | 
21 | Cc1nc2c(S(=O)(=O)C/C(F)=C/CN)cccc2s1 [Compound 50, (Z)-3-fluoro-4-((2-methylbenzo[d]thiazol-4-yl)sulfonyl)but-2-en-1-amine hydrochloride] | < 10 | < 1 | > 30
22 | Cc1ccncc1S(=O)(=O)C/C(F)=C/CN [Compound 48, (Z)-3-fluoro-4-(4-methylpyridin-3-ylsulfonyl)but-2-en-1-amine dihydrochloride] | < 10 | < 1 | 
23 | [2H]c1nc2c(S(=O)(=O)C/C(F)=C/CN)c([2H])c([2H])c([2H])c2c([2H])c1[2H] [Compound 53, (Z)-3-fluoro-4-((quinolin-8-yl-d6)sulfonyl)but-2-en-1-amine dihydrochloride] |  |  | > 30
24 | CC(C)c1ccccc1S(=O)(=O)C/C(F)=C/CN [Compound 21, (Z)-3-fluoro-4-(2-isopropylphenylsulfonyl)but-2-en-1-amine hydrochloride] | < 10 | < 1 | 
